Data published in ChEMBL document CHEMBL1201862, “PubChem BioAssay data set” (2004).
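Compound exposure: 48 hours, 5 concentrations, 96-well plates. GI50 is the concentration that inhibits growth by half.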 Active and inactive are the calls of the source. Cut-off read from the data, not from the text of the source: active = GI50 up to about 1.1 µM and inactive = higher.

Assays:
Experiment in all cases: NCI-60 cell line screen, 48 h
KM12 = tested on: KM12
SK-OV-3 = tested on: SK-OV-3
CAKI-1 = tested on: CAKI-1
SNB-75 = tested on: SNB-75
SF-295 = tested on: SF-295
NCI/ADR-RES = tested on: NCI/ADR-RES
HOP-92 = tested on: HOP-92
LOX IMVI = tested on: LOX IMVI
UACC-257 = tested on: UACC-257
HT-29 = tested on: HT-29
M19-MEL = tested on: M19-MEL
RXF 393 = tested on: RXF 393
A549 = tested on: A549
HOP-62 = tested on: HOP-62
U-251 = tested on: U-251
HCC 2998 = tested on: HCC 2998
SK-MEL-28 = tested on: SK-MEL-28
MOLT-4 = tested on: MOLT-4
TK-10 = tested on: TK-10
M14 = tested on: M14

## C[C@H]1[C@@H]2C[C@@H]3O[C@@]34[C@H]3CCC5Cc6nc7c(nc6C[C@@]5(C)[C@]3(O)CC(=O)[C@@]24CO[C@]12OC(C)(C)C[C@@H]2O)CC1CC[C@@H]2C3=C[C@H]4O[C@@]5(OC(C)(CO)C[C@@H]5O)[C@H](C)[C@@]4(O)[C@]3(C)[C@@H](O)CC2[C@]1(C)C7 (stereo partly specified)
KM12
  GI50: 0.0706 µM (active)
SK-OV-3
  GI50: 0.0168 µM (active)
CAKI-1
  GI50: 0.0809 µM (active)
SNB-75
  GI50: 0.00071 µM (active)
SF-295
  GI50: 0.00215 µM (active)
NCI/ADR-RES
  GI50: > 3.52 µM (inactive)
HOP-92
  GI50: 0.0254 µM (active)
LOX IMVI
  GI50: 0.024 µM (active)
UACC-257
  GI50: 0.139 µM (active)
HT-29
  GI50: 0.014 µM (active)
M19-MEL
  GI50: 2.77 µM (inactive)
RXF 393
  GI50: 0.00178 µM (active)
A549
  GI50: 0.0168 µM (active)
HOP-62
  GI50: 0.0109 µM (active)
U-251
  GI50: 0.00511 µM (active)
HCC 2998
  GI50: 0.506 µM (active)

## O=C(O)CCCCCCCCC(=O)O [SEBACIC ACID]
KM12
  GI50: > 500 µM (inactive)
SK-OV-3
  GI50: 50 µM (inactive)
CAKI-1
  GI50: > 500 µM (inactive)
SNB-75
  GI50: > 79.3 µM (inactive)
SF-295
  GI50: 79.3 µM (inactive)
SK-MEL-28
  GI50: > 500 µM (inactive)
NCI/ADR-RES
  GI50: > 79.3 µM (inactive)
MOLT-4
  GI50: > 500 µM (inactive)
HOP-92
  GI50: 5 µM (inactive)
LOX IMVI
  GI50: > 500 µM (inactive)
UACC-257
  GI50: 108 µM (inactive)
HT-29
  GI50: > 23.2 µM (inactive)
M19-MEL
  GI50: > 79.3 µM (inactive)
RXF 393
  GI50: 50 µM (inactive)
A549
  GI50: 108 µM (inactive)
HOP-62
  GI50: > 50 µM (inactive)
U-251
  GI50: > 79.3 µM (inactive)
HCC 2998
  GI50: 50 µM (inactive)

## CCC1CN2CCC1CC2 (stereo unspecified)
KM12
  GI50: > 100 µM (inactive)
SK-OV-3
  GI50: > 100 µM (inactive)
SNB-75
  GI50: > 100 µM (inactive)
SF-295
  GI50: > 100 µM (inactive)
SK-MEL-28
  GI50: > 100 µM (inactive)
NCI/ADR-RES
  GI50: > 100 µM (inactive)
MOLT-4
  GI50: > 100 µM (inactive)
LOX IMVI
  GI50: > 100 µM (inactive)
UACC-257
  GI50: > 91.4 µM (inactive)
HT-29
  GI50: > 100 µM (inactive)
M19-MEL
  GI50: > 100 µM (inactive)
RXF 393
  GI50: > 100 µM (inactive)
A549
  GI50: > 100 µM (inactive)
HOP-62
  GI50: > 100 µM (inactive)
U-251
  GI50: > 100 µM (inactive)
HCC 2998
  GI50: > 100 µM (inactive)

## COc1cc(C(C)c2cc3c(cc2OCCO)OCO3)cc(OC)c1OC (stereo unspecified)
TK-10
  GI50: 18.3 µM (inactive)
SK-OV-3
  GI50: 2.19 µM (inactive)
CAKI-1
  GI50: 5.11 µM (inactive)
SNB-75
  GI50: 1.2 µM (inactive)
SF-295
  GI50: 0.413 µM (active)
MOLT-4
  GI50: 0.935 µM (active)
M14
  GI50: 1.18 µM (inactive)
LOX IMVI
  GI50: 2.75 µM (inactive)
UACC-257
  GI50: 7.16 µM (inactive)
HT-29
  GI50: 0.436 µM (active)
M19-MEL
  GI50: 1.66 µM (inactive)
RXF 393
  GI50: 0.63 µM (active)
A549
  GI50: 2.32 µM (inactive)
HOP-62
  GI50: 1.74 µM (inactive)
U-251
  GI50: 2.48 µM (inactive)
HCC 2998
  GI50: 2.04 µM (inactive)

## COc1c(Cl)cc(S(=O)O)cc1Cl
TK-10
  GI50: > 100 µM (inactive)
KM12
  GI50: > 100 µM (inactive)
SK-OV-3
  GI50: > 100 µM (inactive)
SNB-75
  GI50: > 100 µM (inactive)
SK-MEL-28
  GI50: > 100 µM (inactive)
MOLT-4
  GI50: > 100 µM (inactive)
M14
  GI50: > 100 µM (inactive)
LOX IMVI
  GI50: > 100 µM (inactive)
UACC-257
  GI50: > 100 µM (inactive)
HT-29
  GI50: > 100 µM (inactive)
M19-MEL
  GI50: > 100 µM (inactive)
RXF 393
  GI50: > 100 µM (inactive)
HOP-62
  GI50: > 100 µM (inactive)
U-251
  GI50: > 100 µM (inactive)
HCC 2998
  GI50: > 100 µM (inactive)

## CC(C)CCC1CC2C(=O)N(c3ccccc3)C(=O)C2c2[nH]c3ccccc3c21 (stereo unspecified)
TK-10
  GI50: 4.53 µM (inactive)
KM12
  GI50: 1.28 µM (inactive)
SK-OV-3
  GI50: 1.36 µM (inactive)
SNB-75
  GI50: 2.22 µM (inactive)
SF-295
  GI50: 0.509 µM (active)
SK-MEL-28
  GI50: 4.68 µM (inactive)
MOLT-4
  GI50: 2.77 µM (inactive)
M14
  GI50: 0.288 µM (active)
LOX IMVI
  GI50: 1.08 µM (active)
HT-29
  GI50: 3.4 µM (inactive)
M19-MEL
  GI50: 5.2 µM (inactive)
RXF 393
  GI50: 0.83 µM (active)
A549
  GI50: 0.412 µM (active)
U-251
  GI50: 0.455 µM (active)
HCC 2998
  GI50: 1.42 µM (inactive)
